# System: ET-A and/or ET-B receptor
# Assay: contraction of human aortic rings in organ culture (agonist assay)
# Conditions: increasing concentrations 0.01 nM to 100 nM, at top concentration, 37° C.
# Description: Endothelin-1 is a peptide which signals through the ET-A and/or ET-B receptor to cause vasoconstriction. To determine whether compounds of the invention are agonists at ET-A and/or ET-B, rings of human aorta (obtained from transplant donor hearts) can be put into organ culture. Rings are then exposed either to increasing concentrations of Endothelin-1 (from 0.01 nM to 100 nM), or to increasing concentrations of the test compound(s) (from about 0.1 nM to about 10 mM) at 37° C., raising the concentration of the appropriate agent approximately every 5 minutes. Throughout the experiment the contraction of the aortic ring is measured by a strain gauge designed and commercially available for such a purpose. […] If the compound of the invention is an agonist at the endothelin receptors, then the force exerted on the strain guage will also be higher (at least at certain concentrations) than prior to addition of the test compound.
substance,measurement,value
Endothelin-1,force exerted on the strain gauge versus prior to addition,significantly higher

# From patent US8618283B2, “Ligand libraries for screening GPCRs” (Cambridge Enterprise Limited, priority 2005, dated 2013)
